Data set [1] in a line: Intrinsic clearance assay (human liver microsomes). The format is in vitro ADME. As to conditions: both sexes; 1 μM compound, human liver microsomes 0.5 mg/mL protein, 37° C., 1 mM NADPH; read-out: Human Intrinsic CL (converted). On the procedure: Intrinsic Clearance Assay
The disappearance of the test compound was monitored by LC/MS at […] The slope of decline in compound concentration was used to calculate the human intrinsic clearance by employing standard methods reported in the literature.

The target in data set [2] is T1, human Jak2 (a.a. 828-1132) catalytic domain (Homo sapiens, UniProt O60674).
T1 construct: Jak2 (a.a. 828-1132); His tag (N); made in house; host or cells: insect cells (baculovirus)
T1 sequence (O60674 828-1132): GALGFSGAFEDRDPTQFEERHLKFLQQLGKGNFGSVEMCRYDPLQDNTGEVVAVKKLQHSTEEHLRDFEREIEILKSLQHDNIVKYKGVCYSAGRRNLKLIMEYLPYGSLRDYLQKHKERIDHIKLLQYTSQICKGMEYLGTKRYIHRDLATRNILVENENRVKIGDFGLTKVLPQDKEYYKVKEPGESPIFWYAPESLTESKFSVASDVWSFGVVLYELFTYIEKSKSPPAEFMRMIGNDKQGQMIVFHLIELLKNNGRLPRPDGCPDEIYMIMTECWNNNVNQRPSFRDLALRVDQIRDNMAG
As to the kind of experiment: In vitro JAK kinase assay (HTRF), JAK2. In kind it is biochemical. As to conditions: 30 μM ATP; ranges = lowest and highest values of the stereoisomers tested; read-out: JAK 2 IC50. On the technique in general: TR-FRET usually uses a lanthanide donor and a delayed reading to cut background.

Data set [3] deals with human JAK1 (a.a. 837-1142) catalytic domain (Homo sapiens, UniProt P23458). As to the kind of experiment: In vitro JAK kinase assay (HTRF), JAK1.
human JAK1 (a.a. 837-1142) catalytic domain, sequence (P23458 849-1154): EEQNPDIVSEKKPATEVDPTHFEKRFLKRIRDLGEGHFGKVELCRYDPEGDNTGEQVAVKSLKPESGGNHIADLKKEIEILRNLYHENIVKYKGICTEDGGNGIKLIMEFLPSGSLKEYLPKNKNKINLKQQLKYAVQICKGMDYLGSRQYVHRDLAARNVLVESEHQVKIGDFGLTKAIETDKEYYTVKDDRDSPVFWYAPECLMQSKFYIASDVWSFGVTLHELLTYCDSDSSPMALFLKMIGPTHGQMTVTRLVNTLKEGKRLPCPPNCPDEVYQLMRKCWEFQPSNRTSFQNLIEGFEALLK
For data set [4], the target named is human Jak3 (a.a. 781-1124) catalytic domain (Homo sapiens, UniProt P52333). In words: In vitro JAK kinase assay (HTRF), JAK3.
human Jak3 (a.a. 781-1124) catalytic domain, sequence (P52333 781-1124): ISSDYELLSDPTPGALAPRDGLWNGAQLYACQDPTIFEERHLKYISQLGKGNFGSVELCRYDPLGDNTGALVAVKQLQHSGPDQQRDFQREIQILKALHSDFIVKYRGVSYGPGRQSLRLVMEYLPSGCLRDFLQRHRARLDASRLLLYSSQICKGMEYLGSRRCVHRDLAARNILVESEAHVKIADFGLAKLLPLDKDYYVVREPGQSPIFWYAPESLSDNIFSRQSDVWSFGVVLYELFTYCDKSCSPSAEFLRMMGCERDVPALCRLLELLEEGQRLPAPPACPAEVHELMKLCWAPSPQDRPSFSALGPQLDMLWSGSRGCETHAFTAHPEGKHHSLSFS

pIC50: −log10 of the molar value. Bounds are passed on as bounds.

With `N#CC[C@H](C1CCCC1)n1cc(-c2ncnc3[nH]ccc23)cn1` [Compound 1, (R)-3-(4-(7H-pyrrolo[2,3-d]pyrimidin-4-yl)-1H-pyrazol-1-yl)-3-cyclopentylpropanenitrile, reference compound], the CLint scaled at 1 μM in data set [1] is 11.3 mL/min/kg.

On to `N#CCC(C1CCC(O)C1)n1cc(-c2ncnc3[nH]ccc23)cn1` (stereo not shown) [Metabolite 1, 3-(4-(7H-pyrrolo[2,3-d]pyrimidin-4-yl)-1H-pyrazol-1-yl)-3-(3-hydroxycyclopentyl)propanenitrile], for which the CLint scaled at 1 μM in data set [1] is less than 8.33 mL/min/kg. In addition, the pIC50 (commonly the negative decadic logarithm of the IC50, by convention in mol/L) in data set [2] was 8.60 to 9.15; in data set [3] it was 7.92 to 8.60; in data set [4], 7.35 to 8.08.

For the compound `N#CCC(C1CCCC1O)n1cc(-c2ncnc3[nH]ccc23)cn1` (stereo not shown) [Metabolite 2, 3-(4-(7H-pyrrolo[2,3-d]pyrimidin-4-yl)-1H-pyrazol-1-yl)-3-(2-hydroxycyclopentyl)propanenitrile], the CLint scaled at 1 μM in data set [1] is less than 8.33 mL/min/kg. The negative logarithm of the IC50 (pIC50) in data set [2] was 8.55 to 8.70; in data set [3], 7.82 to 8.52; in data set [4], 7.52 to 7.77.

For the compound `N#CCC(C1CCC(=O)C1)n1cc(-c2ncnc3[nH]ccc23)cn1` (stereo not shown) [Metabolite 3, 3-(4-(7H-pyrrolo[2,3-d]pyrimidin-4-yl)-1H-pyrazol-1-yl)-3-(3-oxycyclopentyl)propanenitrile], the CLint scaled at 1 μM in data set [1] was less than 9.5 mL/min/kg. For the same compound, the pIC50 is 8.23 to 8.68 in data set [2], 7.92 to 8.57 in data set [3] and 7.39 to 7.96 in data set [4].

These data come from US10463667B2 (Incyte Corporation, priority 2007, dated 2019).
